{"source": "patent US10301596B2", "about": "“Method of repairing damaged chondrocytes via low-dose irradiation” (KOREA INSTITUTE OF RADIOLOGICAL & MEDICAL SCIENCES, priority 2013, dated 2019)", "assay_type_in_all_cases": "cell-based", "key": {"chondrocytes": {"tested_on": "chondrocytes", "test": "Levels of differentiation- and inflammation-related proteins (type II collagen, Sox-9, I-κB, COX-2), Western blot in chondrocytes", "experimental": "First, the chondrocytes derived from joints were cultured in a DMEM medium according to a known method (E. H. Hong, et al., J. Biol. Chem. 285:1283-1295, 2010). Then, the cultured chondrocytes were inoculated into culture dishes at a density of 5×10^4 cells/cm^2, which were irradiated with 0 cGy, 0.5 cGy, 1.0 cGy, 1.5 cGy, and 2.0 cGy LDR using a ^137Cs-ray source (KIRMS, Korea), and the levels of type II collagen or Sox-9 protein, which are cartilage-specific differentiation marker proteins, and I-κB or COX-2 protein, which are inflammation-related proteins, were determined via Western blot analysis, and the transcriptional activity of Sox-9 protein and NF-κB, which is affected by I-κB, were determined by reporter gene assay (FIGS. 1a and b). […]\nFinally, chondrocytes were transfected with 3 μg of GFP-labeled S83A α-catenin, FLAG-labeled S33A β-catenin, or wild type γ-catenin, reacted with or without treatment with 5 μM or 10 μM BAY 11-7082 for 24 hours, and the levels of I-κB and COX-2 proteins were determined via Western blot analysis (FIG. 5g). […]"}, "Sox-9": {"tested_on": "Sox-9", "test": "Sox-9 transcriptional activity, reporter gene assay in chondrocytes", "details": "10 ng/mL IL-1β alone", "experimental": "(§1) First, the chondrocytes derived from joints were cultured in a DMEM medium according to a known method (E. H. Hong, et al., J. Biol. Chem. 285:1283-1295, 2010). Then, the cultured chondrocytes were inoculated into culture dishes at a density of 5×10^4 cells/cm^2, which were irradiated with 0 cGy, 0.5 cGy, 1.0 cGy, 1.5 cGy, and 2.0 cGy LDR using a ^137Cs-ray source (KIRMS, Korea), and the levels of type II collagen or Sox-9 protein, which are cartilage-specific differentiation marker proteins, and I-κB or COX-2 protein, which are inflammation-related proteins, were determined via Western blot analysis, and the transcriptional activity of Sox-9 protein and NF-κB, which is affected by I-κB, were determined by reporter gene assay (FIGS. 1a and b).\n(§2) Chondrocytes were treated with either 10 ng/mL IL-1β alone, or in a combination of IL-1β treatment and 0.5 cGy or 1 cGy LDR, and the transcript levels of type I collagen, type II collagen, Sox-9, COX-2, and I-κB were measured via PCR using GAPDH as a control and a quantitative real-time PCR analysis, and the transcriptional activity of NF-κB was measured by reporter gene assay (FIGS. 2a, 2b, 2c, and 2d).\nAdditionally, the transcriptional activity of Sox-9 or NF-κB was determined by reporter gene assay, and the experimental results were indicated in terms of mean standard deviation (FIG. 5e). […]"}, "[1]": {"tested_on": "α-, β-, and γ-catenin proteins", "test": "Levels of catenin proteins, Western blot in chondrocytes", "details": "10 ng/mL IL-1β for a predetermined period of time", "experimental": "First, chondrocytes were treated with 10 ng/mL IL-1β for a predetermined period of time, and the levels of the catenin proteins were determined via Western blot analysis (FIG. 4a).\nFirst, it was examined whether LDR can directly regulate the expression of catenin proteins in chondrocytes. In this regard, chondrocytes, which were in a state untreated or treated with 10 ng/mL IL-1β, were irradiated at varied doses of LDR for 48 hours, and the levels of catenin proteins were determined via Western blot analysis (FIGS. 5a and 5h).\nIn order to examine whether the inhibitory effect of LDR on chondrocyte disorders is exclusively related to the responses to IL-1β, cells were treated with EGF, PMA, and RA, which are agents known to induce dedifferentiation of chondrocytes. Specifically, chondrocytes were treated or untreated with 10 ng/mL EGF(a), 10 nM PMA(b), and 1 μM RA(c) for 2 hours, treated or untreated with 0.5 cGy or 1 cGy LDR for 36 hours, and the levels of catenin proteins and differentiation/inflammation-related proteins were determined via Western blot analysis (FIGS. 6a, 6b, and 6c)."}, "Akt": {"tested_on": "Akt", "test": "Expression and phosphorylation of Akt and GSK3α/β, Western blot in chondrocytes", "details": "10 ng/mL IL-1β"}, "NF-κB": {"tested_on": "NF-κB", "test": "NF-κB transcriptional activity, reporter gene assay in chondrocytes", "details": "for transcriptional activity of NF-κB increased: 10 ng/mL IL-1β; for NF-κB activity reduced compared to IL-1β-treated chondrocytes: 1 hour before 10 ng/mL IL-1β", "experimental": "as §1, §2\nMeanwhile, chondrocytes were treated with LY294002, which is another chemical inhibitor of PI3K/Akt signaling, at a concentration of 10 μM or 20 μM, reacted for 1 hour, treated with […] reacted for 48 hours. Upon reaction, the levels of type II collagen, Sox-9, I-κB, and COX-2 proteins were determined via Western blot analysis, and the transcriptional activity of NF-κB was determined by reporter gene assay (FIG. 3c).\nFinally, chondrocytes were transfected with 3 μg of the respective catenin plasmid for 24 hours, and untreated (−) or treated with 10 ng/mL, IL-1β (+) for 48 hours. Then, the levels of differentiation- and inflammation-related proteins were determined via Western blot analysis, and the transcriptional activity of NF-κB at 24 hours after IL-1β treatment was determined by reporter gene assay (FIG. 4d).\nAdditionally, the transcriptional activity of Sox-9 or NF-κB was determined by reporter gene assay, and the experimental results were indicated in terms of mean standard deviation (FIG. 5e). As a result, it was confirmed that LDR can increase the activity of Sox-9 in catenin-overexpressing chondrocytes while reducing the transcriptional activity of NF-κB. Specifically, as shown in FIG. 5e (left), 1 cGy LDR irradiation increased Sox-9 activity by about a 2.2-, 2.7-, and 2.4-fold compared to that in cells transfected with […], and, as shown in FIG. 5e (right), reduced NF-κB activity by about 74%, 78%, and 75%, respectively, thus confirming that LDR has the effect of inhibiting the induction of potential inflammation."}, "COX-2": {"tested_on": "COX-2", "test": "COX-2 transcript level by PCR and quantitative real-time PCR in chondrocytes", "details": "10 ng/mL IL-1β", "experimental": "as §2"}, "[2]": {"details": "5 μM or 10 μM, 1 hour before 10 ng/mL IL-1β, 48 hours"}}, "data": [{"compound": "CCCCCCCCCCCCCC(=O)O[C@@H]1[C@@H](C)[C@@]2(O)[C@@H](C=C(CO)C[C@]3(O)C(=O)C(C)=C[C@@H]23)[C@@H]2C(C)(C)[C@]12OC(C)=O", "note": "[PMA, phorbol 12-myristate 13-acetate]", "values": [{"measurement": "pathological changes induced by soluble factor (type II collagen, Sox-9, COX-2 proteins)", "setting": "chondrocytes; 10 ng/mL EGF, 10 nM PMA or 1 μM RA", "value": "inhibition of expression of type II collagen and Sox-9 proteins and induction of COX-2 protein expression"}]}, {"compound": "IL-1β: cytokine used at 10 ng/mL to induce dedifferentiation, inflammation and destruction of chondrocytes", "values": [{"measurement": "transcriptional activity of Sox-9 reduced compared to control cells", "setting": "Sox-9; 24 hours after treatment", "value": "about 32%"}, {"measurement": "transcriptional activity of Sox-9 reduced compared to control cells", "setting": "Sox-9; 48 hours after treatment", "value": "~60", "unit": "%"}, {"measurement": "expression of α-, β-, and γ-catenin proteins", "setting": "[1]", "value": "expressed in a time-dependent manner"}, {"measurement": "phosphorylation of Akt induced by treatment", "setting": "Akt", "value": "induced the phosphorylation of Akt"}, {"measurement": "level of type II collagen and Sox-9 proteins", "setting": "chondrocytes; 10 ng/mL IL-1β alone", "value": "reduced the level of type II collagen and Sox-9 proteins"}, {"measurement": "NF-κB activity increase, IL-1β treatment alone", "setting": "NF-κB; 10 ng/mL IL-1β alone, 24 hours after treatment, catenin experiment (FIG. 4d)", "value": "about 8.5 fold"}, {"measurement": "transcriptional activity of NF-κB increased", "setting": "NF-κB; 24 hours after treatment (FIG. 2c)", "value": "about 8.6 fold"}, {"measurement": "transcriptional activity of NF-κB increased", "setting": "NF-κB; 48 hours after treatment (FIG. 2c)", "value": "~6.7", "unit": "fold"}, {"measurement": "level of COX-2 expression increased compared to control group", "setting": "COX-2; 24 hours after treatment", "value": "about 9.8 fold"}, {"measurement": "level of COX-2 expression increased compared to control group", "setting": "COX-2; 48 hours after treatment", "value": "~7.7", "unit": "fold"}]}, {"compound": "Cc1ccc(S(=O)(=O)/C=C/C#N)cc1", "note": "[BAY 11-7082]", "values": [{"measurement": "degradation of I-κB and induction of COX-2 in cells transfected with α-, β- or γ-catenin", "setting": "chondrocytes; 5 μM or 10 μM for 24 hours, catenin-transfected chondrocytes", "value": "reversed"}, {"measurement": "COX-2 protein expression compared to IL-1β-treated chondrocytes", "setting": "chondrocytes; [2]", "value": "reduced COX-2 expression"}, {"measurement": "I-κB degradation", "setting": "chondrocytes; [2]", "value": "inhibited I-κB degradation in a dose-dependent manner"}]}, {"compound": "O=c1cc(N2CCOCC2)oc2c(-c3ccccc3)cccc12", "note": "[LY294002]", "values": [{"measurement": "NF-κB activity reduced compared to IL-1β-treated chondrocytes", "setting": "NF-κB; 10 μM", "value": "about 48%"}, {"measurement": "NF-κB activity reduced compared to IL-1β-treated chondrocytes", "setting": "NF-κB; 20 μM", "value": "~68", "unit": "%"}]}]}
